“And” between values parts separate entries of the source, which are not always exact repeats. Identical values can stand only once. Inconclusive results and toxic doses are left out. Residues, ends and D or L forms follow the SMILES beside them.
System: BDF1 mice, P388 leukemia ip, median survival T/C
Experiment: NCI In Vivo Anticancer Drug Screen. Data for tumor model P388 Leukemia (intraperitoneal) in B6D2F1 (BDF1) mice
Details: endpoint: median survival time, higher = longer survival
Description: The antitumor activity of compounds was measured in mice bearing transplantable tumors. Survival or tumor size were measured and the results are expressed as the measurement made in the treated group (T) divided by the measurement made in the vehicle treated control group (C). The tumor model used in this assay is P388 Leukemia (intraperitoneal) in B6D2F1 (BDF1) mice

[1] = dose: 50.0 mg/kg/injection, schedule: Q01DX009 (ip), vehicle: saline with Tween-80
[2] = dose: 100.0 mg/kg/injection, schedule: Q01DX009 (ip), vehicle: saline with Tween-80
[3] = dose: 200.0 mg/kg/injection, schedule: Q01DX009 (ip), vehicle: saline with Tween-80
[4] = dose: 400.0 mg/kg/injection, schedule: Q01DX009 (ip), vehicle: saline with Tween-80
[5] = dose: 200.0 mg/kg/injection, schedule: Q01DX009 (ip), vehicle: saline
[6] = dose: 400.0 mg/kg/injection, schedule: Q01DX009 (ip), vehicle: saline
[7] = dose: 12.5 mg/kg/injection, schedule: Q01DX009 (ip), vehicle: saline with Tween-80
[8] = dose: 25.0 mg/kg/injection, schedule: Q01DX009 (ip), vehicle: saline
[9] = dose: 50.0 mg/kg/injection, schedule: Q01DX009 (ip), vehicle: saline
[10] = dose: 100.0 mg/kg/injection, schedule: Q04DX003 (ip), vehicle: saline with Tween-80
[11] = dose: 100.0 mg/kg/injection, schedule: Q04DX003 (ip), vehicle: Klucel (hydroxypropylcellulose) (HPC)
[12] = dose: 200.0 mg/kg/injection, schedule: Q04DX003 (ip), vehicle: Klucel (hydroxypropylcellulose) (HPC)
[13] = dose: 50.0 mg/kg/injection, schedule: Q01DX009 (ip), vehicle: water
[14] = dose: 50.0 mg/kg/injection, schedule: Q04DX003 (ip), vehicle: water
[15] = dose: 100.0 mg/kg/injection, schedule: Q01DX009 (ip), vehicle: water
[16] = dose: 100.0 mg/kg/injection, schedule: Q04DX003 (ip), vehicle: water

SMILES: Cc1ccc(C(=O)O)c(=O)[nH]1
- T/C [1]: 98 % of control
- T/C [2]: 95 % of control
- T/C [3]: 100 % of control
- T/C [4]: 94 % of control

SMILES: OCCN1CCOCC1
- T/C (dose: 100.0 mg/kg/injection, schedule: Q01DX009 (ip), vehicle: saline): 109 % of control
- T/C [5]: 109 % of control
- T/C [6]: 109 % of control

SMILES: CC(=O)N1C(=O)N(Cl)C(=O)C1(C)c1cccs1 (stereo unspecified)
- T/C (dose: 66.0 mg/kg/injection, schedule: Q01DX009 (ip), vehicle: saline with Tween-80): 97 % of control
- T/C [2]: 103 % of control
- T/C [3]: 100 % of control

SMILES: CCCC(O)C(C)(C)[N+](=O)[O-] (stereo unspecified)
- T/C (dose: 6.25 mg/kg/injection, schedule: Q01DX009 (ip), vehicle: saline with Tween-80): 99 % of control
- T/C [7]: 89 % of control

SMILES: OC1CC2CCC(C1)N2CCCN1c2ccccc2Sc2ccc(Cl)cc21 (stereo unspecified)
- T/C [8]: 104 % of control
- T/C [9]: 91 % of control
- T/C (dose: 100.0 mg/kg/injection, schedule: Q04DX003 (ip), vehicle: saline): 90 % of control

SMILES: Cn1cnc([N+](=O)[O-])c1Sc1nc(N)nc2c1ncn2C1CC(O)C(CO)O1 (stereo unspecified)
- T/C (dose: 6.25 mg/kg/injection, schedule: Q01DX005 (ip), vehicle: Klucel (hydroxypropylcellulose) (HPC)): 155 % of control
- T/C (dose: 6.25 mg/kg/injection, schedule: Q01DX009 (ip), vehicle: saline): 161 % of control
- T/C [8]: 114 % of control and 95 % of control
- T/C (dose: 50.0 mg/kg/injection, schedule: Q01DX005 (ip), vehicle: Klucel (hydroxypropylcellulose) (HPC)): 86 % of control
- T/C [9]: 107 % of control
- T/C (dose: 150.0 mg/kg/injection, schedule: Q01DX009 (ip), vehicle: saline): 107 % of control
- T/C [5]: 109 % of control and 110 % of control
- T/C (dose: 200.0 mg/kg/injection, schedule: Q04DX003 (ip), vehicle: saline): 118 % of control
- T/C [6]: 91 % of control and 116 % of control
- T/C (dose: 400.0 mg/kg/injection, schedule: Q04DX003 (ip), vehicle: saline): 113 % of control

SMILES: CC(=O)NC(O)C(Cl)(Cl)Cl (stereo unspecified)
- T/C (dose: 100.0 mg/kg/injection, schedule: Q04DX003 (ip), vehicle: saline sonified): 91 % of control
- T/C (dose: 200.0 mg/kg/injection, schedule: Q04DX003 (ip), vehicle: saline sonified): 108 % of control
- T/C (dose: 400.0 mg/kg/injection, schedule: Q04DX003 (ip), vehicle: saline sonified): 100 % of control

SMILES: CC(C)(C)Cc1cc(O)c2c(c1O)C(=O)c1ccccc1C2=O
- T/C (dose: 25.0 mg/kg/injection, schedule: Q04DX003 (ip), vehicle: saline with Tween-80): 100 % of control
- T/C (dose: 50.0 mg/kg/injection, schedule: Q04DX003 (ip), vehicle: saline with Tween-80): 102 % of control
- T/C [10]: 95 % of control

SMILES: CCN(CC)C(=O)c1ccc(C(Cl)(Cl)Cl)cc1
- T/C [7]: 102 % of control
- T/C [1]: 100 % of control and 109 % of control and 120 % of control
- T/C [2]: 100 % of control (2×) and 104 % of control
- T/C [11]: 100 % of control
- T/C (dose: 176.0 mg/kg/injection, schedule: Q04DX003 (ip), vehicle: saline sonified): 104 % of control
- T/C [3]: 112 % of control
- T/C [12]: 95 % of control
- T/C (dose: 264.0 mg/kg/injection, schedule: Q04DX003 (ip), vehicle: saline sonified): 104 % of control
- T/C [4]: 109 % of control

SMILES: COc1cc2c(c(OC)c1OC)-c1ccc(OC)c(=O)cc1[C@@H](NC=O)CC2
- T/C (dose: 0.05 mg/kg/injection, schedule: Q01DX009 (ip), vehicle: Klucel (hydroxypropylcellulose) (HPC)): 120 % of control
- T/C (dose: 0.09 mg/kg/injection, schedule: Q01DX009 (ip), vehicle: Klucel (hydroxypropylcellulose) (HPC)): 160 % of control
- T/C (dose: 0.19 mg/kg/injection, schedule: Q01DX009 (ip), vehicle: Klucel (hydroxypropylcellulose) (HPC)): 160 % of control
- T/C (dose: 0.37 mg/kg/injection, schedule: Q01DX010 (ip), vehicle: saline): 154 % of control
- T/C (dose: 0.38 mg/kg/injection, schedule: Q01DX009 (ip), vehicle: Klucel (hydroxypropylcellulose) (HPC)): 190 % of control
- T/C (dose: 0.38 mg/kg/injection, schedule: Q01DX010 (ip), vehicle: saline): 158 % of control
- T/C (dose: 0.75 mg/kg/injection, schedule: Q01DX009 (ip), vehicle: Klucel (hydroxypropylcellulose) (HPC)): 100 % of control
- T/C (dose: 0.75 mg/kg/injection, schedule: Q01DX010 (ip), vehicle: saline): 170 % of control
- T/C (dose: 6.3 micrograms/kg/injection, schedule: Q01DX010 (ip), vehicle: saline): 100 % of control
- T/C (dose: 12.0 micrograms/kg/injection, schedule: Q01DX009 (ip), vehicle: Klucel (hydroxypropylcellulose) (HPC)): 100 % of control
- T/C (dose: 12.5 micrograms/kg/injection, schedule: Q01DX010 (ip), vehicle: saline): 88 % of control
- T/C (dose: 23.0 micrograms/kg/injection, schedule: Q01DX009 (ip), vehicle: Klucel (hydroxypropylcellulose) (HPC)): 120 % of control
- T/C (dose: 25.0 micrograms/kg/injection, schedule: Q01DX010 (ip), vehicle: saline): 111 % of control
- T/C (dose: 50.0 micrograms/kg/injection, schedule: Q01DX010 (ip), vehicle: saline): 111 % of control

SMILES: CN(C(=O)N(C)c1ccccc1)c1ccccc1
- T/C (dose: 100.0 mg/kg/injection, schedule: Q01DX009 (ip), vehicle: Klucel (hydroxypropylcellulose) (HPC)): 100 % of control
- T/C [11]: 91 % of control
- T/C (dose: 200.0 mg/kg/injection, schedule: Q01DX009 (ip), vehicle: Klucel (hydroxypropylcellulose) (HPC)): 90 % of control
- T/C [12]: 91 % of control
- T/C (dose: 400.0 mg/kg/injection, schedule: Q01DX009 (ip), vehicle: Klucel (hydroxypropylcellulose) (HPC)): 100 % of control
- T/C (dose: 400.0 mg/kg/injection, schedule: Q04DX003 (ip), vehicle: Klucel (hydroxypropylcellulose) (HPC)): 87 % of control

SMILES: COc1cc2ccccc2c(-c2c(O)c(OC)cc3ccccc23)c1O
- T/C [1]: 91 % of control
- T/C [2]: 86 % of control
- T/C [3]: 88 % of control

SMILES: CCCNC(=O)Nc1ccc(C(=O)OCC(C)C)cc1
- T/C [10]: 104 % of control
- T/C (dose: 200.0 mg/kg/injection, schedule: Q04DX003 (ip), vehicle: saline with Tween-80): 100 % of control
- T/C (dose: 400.0 mg/kg/injection, schedule: Q04DX003 (ip), vehicle: saline with Tween-80): 100 % of control

SMILES: Cc1ccc2[nH]c(=S)n(-c3cccc(C(F)(F)F)c3)c(=O)c2c1
- T/C (dose: 25.0 mg/kg/injection, schedule: Q01DX009 (ip), vehicle: saline with Tween-80): 102 % of control
- T/C [1]: 92 % of control and 94 % of control
- T/C [2]: 102 % of control
- T/C [3]: 93 % of control
- T/C [4]: 102 % of control

SMILES: Cc1nc(C(=O)O)c(=O)[nH]c1C
- T/C [13]: 114 % of control
- T/C [14]: 94 % of control
- T/C [15]: 122 % of control
- T/C [16]: 105 % of control
- T/C (dose: 200.0 mg/kg/injection, schedule: Q01DX009 (ip), vehicle: water): 121 % of control
- T/C (dose: 200.0 mg/kg/injection, schedule: Q04DX003 (ip), vehicle: water): 100 % of control

SMILES: O=[N+]([O-])c1cc(C(F)(F)F)cc([N+](=O)[O-])c1N1CCCC(n2cccc2)C1 (stereo unspecified)
- T/C [1]: 107 % of control
- T/C [2]: 109 % of control
- T/C [3]: 118 % of control

SMILES: CC(C)C(N)C(=O)NC(Cc1ccc(O)cc1)C(=O)NC(C(=O)O)C(C)C (stereo not drawn) (H-Val-Tyr-Val-OH; configuration not given here)
- T/C (dose: 50.0 mg/kg/injection, schedule: Q01DX005 (ip), vehicle: saline): 89 % of control
- T/C (dose: 100.0 mg/kg/injection, schedule: Q01DX005 (ip), vehicle: saline): 97 % of control
- T/C (dose: 200.0 mg/kg/injection, schedule: Q01DX005 (ip), vehicle: saline): 92 % of control

SMILES: c1ccc(-c2c(-c3ccccc3)c(-c3ccccc3)c(-c3ccccc3)c(-c3ccccc3)c2-c2ccccc2)cc1
- T/C (dose: 6.25 mg/kg/injection, schedule: Q01DX009 (ip), vehicle: water): 93 % of control
- T/C (dose: 12.5 mg/kg/injection, schedule: Q01DX009 (ip), vehicle: water): 115 % of control
- T/C (dose: 12.5 mg/kg/injection, schedule: Q04DX003 (ip), vehicle: water): 106 % of control
- T/C (dose: 25.0 mg/kg/injection, schedule: Q04DX003 (ip), vehicle: water): 106 % of control and 108 % of control
- T/C [13]: 90 % of control
- T/C [14]: 100 % of control and 109 % of control
- T/C [15]: 89 % of control
- T/C [16]: 88 % of control and 97 % of control
